≈ marks a conversion by molar mass, not a printed value.
Tests used:
Enterococcus sp. = experiment: In vitro antibacterial evaluation: minimum inhibitory concentration (MIC), broth dilution method; type: cell-based
Procedure, shortened: (§1)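 NCCLS M7-A2 broth dilution with Mueller-Hinton II, testing 64-0.06 μg/mL antibiotic against 5×10^5 CFU/mL inocula. Test strains include recent methicillin-, penicillin- or vancomycin-resistant clinical isolates. MIC is the lowest concentration preventing growth.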

Escherichia coli = experiment: as above; type: cell-based
Procedure, shortened: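 Following NCCLS approved standard M7-A2, compounds are serially diluted from 64 to 0.06 μg/mL in Muller-Hinton II […] and inoculated at 5×10^5 CFU/mL; the MIC is the minimum concentration at which growth is inhibited.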

Staphylococcus sp. = experiment: as above; type: cell-based; details: for MIC Staphylococcus haemolyticus (GC 4546): strain GC 4546; for MIC Coagulase Negative Staphylococcus (GC 4547): strain GC 4547; for MIC Coagulase Negative Staphylococcus (GC 4548): strain GC 4548; for MIC Coagulase Negative Staphylococcus (GC 4549): strain GC 4549; for MIC Coagulase Negative Staphylococcus (GC 4551): strain GC 4551; for MIC Coagulase Negative Staphylococcus (ID-3941): strain ID-3941
Procedure, shortened: as §1

Streptococcus sp. = experiment: as above; type: cell-based
Procedure, shortened: as §1

[1] = system: Enterococcus faecalis (GC 2246), vancomycin resistant strain; experiment: Acute lethal infection in mice (ED50); type: in vivo; details: female CD-1 mice, intraperitoneal challenge, intravenous dose 30 min. after infection, 7 day survival ratios
Procedure, shortened: (§2)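 Female CD-1 mice challenged intraperitoneally with a bacterial dose lethal to untreated controls within 24-48 h. Compound given intravenously in saline or 5% dextrose 30 min post-infection, five mice per dose; ED50 from 7-day survival pooled over 3 tests.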

[2] = system: Staphylococcus aureus-SMITH (GC 4543); experiment: Acute lethal infection in mice (ED50); type: in vivo; details: female CD-1 mice, intraperitoneal challenge, intravenous dose 30 min. after infection, 7 day survival ratios
Procedure, shortened: as §2

[3] = broth dilution, 5×10^5 CFU/mL, 18 hours at 35° C.
[4] = strain GC 4543, 18 hours at 35° C.
[5] = broth dilution, 18 hours at 35° C.

## CCCC(CCC)C(=O)OCC1OC(OC2C(CO)OC(Oc3ccc(CC4NC(=O)C(C(C)c5ccccc5)NC(=O)CNC(=O)C(CO)NC(=O)C(C(O)C5CNC(=N)N5C5OC(CO)C(O)C(O)C5O)NC(=O)C(C(O)C5CNC(=N)N5)NC4=O)cc3)C(O)C2O)C(O)C(O)C1O (stereo not drawn) [Example 99c, Cyclo[glycyl-β-methylphenylalanyl-O-[4-O-[6-O-(2-propylpentanoyl)hexopyranosyl]-hexopyranosyl]tyrosyl-3-(2-iminoimidazolidin-4-yl)seryl-3-(3-hexopyranosyl-2-iminoimidazolidin-4-yl)serylseryl]]
Enterococcus sp.; [3]
  MIC Enterococccus avium (GC 4558): 4 mg/L (≈ 2.81 µM)
  MIC Enterococccus faecalis (ATCC 29212): 4 mg/L (≈ 2.81 µM)
  MIC Enterococccus faecalis (GC 4552): 4 mg/L (≈ 2.81 µM)
  MIC Enterococccus faecalis (GC 4553): 4 mg/L (≈ 2.81 µM)
  MIC Enterococccus faecalis (GC 4554): 4 mg/L (≈ 2.81 µM)
  MIC Enterococccus faecium (GC 2243): 4 mg/L (≈ 2.81 µM)
  MIC Enterococccus faecium (GC 4556): 4 mg/L (≈ 2.81 µM)
  MIC Enterococccus faecium (GC 4557): 2 mg/L (≈ 1.41 µM)
  MIC Enterococcus faecalis (GC 2242): 4 mg/L (≈ 2.81 µM)
Escherichia coli; 5×10^5 CFU/mL, 18 hours at 35° C.
  MIC Escherichia coli (ATCC 25922): 64 mg/L (≈ 45 µM)
Staphylococcus sp.; strain ATCC 29213
  MIC Staphylococcus aureus (ATCC 29213): 1 mg/L (≈ 0.703 µM)
Staphylococcus sp.; strain GC 1131
  MIC Staphylococcus aureus (GC 1131): 2 mg/L (≈ 1.41 µM)
Staphylococcus sp.; strain GC 4541
  MIC Staphylococcus aureus (GC 4541): 2 mg/L (≈ 1.41 µM)
Staphylococcus sp.; strain GC 4542
  MIC Staphylococcus aureus (GC 4542): 1 mg/L (≈ 0.703 µM)
Staphylococcus sp.; [4]
  MIC Staphylococcus aureus-SMITH (GC 4543): 1 mg/L (≈ 0.703 µM)
Staphylococcus sp.; strain GC 4543, broth dilution, 18 hours at 35° C.
  MIC Staphylococcus aureus-SMITH (GC 4543): 1 mg/L (≈ 0.703 µM)
Staphylococcus sp.; strain GC 4544
  MIC Staphylococcus aureus (GC 4544): 2 mg/L (≈ 1.41 µM)
Staphylococcus sp.; strain GC 4545
  MIC Staphylococcus aureus (GC 4545): 1 mg/L (≈ 0.703 µM)
Staphylococcus sp.
  MIC Staphylococcus haemolyticus (GC 4546): 1 mg/L (≈ 0.703 µM)
  MIC Coagulase Negative Staphylococcus (GC 4547): 1 mg/L (≈ 0.703 µM)
  MIC Coagulase Negative Staphylococcus (GC 4548): 1 mg/L (≈ 0.703 µM)
  MIC Coagulase Negative Staphylococcus (GC 4549): 1 mg/L (≈ 0.703 µM)
  MIC Coagulase Negative Staphylococcus (GC 4551): 2 mg/L (≈ 1.41 µM)
  MIC Coagulase Negative Staphylococcus (ID-3941): 1 mg/L (≈ 0.703 µM)
Staphylococcus sp.; [5]
  MIC Staphylococcus haemolyticus (GC 4546): 1 mg/L (≈ 0.703 µM)
  MIC Coagulase Negative Staphylococcus (GC 4547): 1 mg/L (≈ 0.703 µM)
  MIC Coagulase Negative Staphylococcus (GC 4548): 1 mg/L (≈ 0.703 µM)
  MIC Coagulase Negative Staphylococcus (GC 4549): 1 mg/L (≈ 0.703 µM)
  MIC Coagulase Negative Staphylococcus (GC 4551): 2 mg/L (≈ 1.41 µM)
  MIC Coagulase Negative Staphylococcus (ID-3941): 1 mg/L (≈ 0.703 µM)
Streptococcus sp.; [3]
  MIC Streptococcus agalactiae (GC 4564): <0.5 mg/L
  MIC Streptococcus pneumoniae (GC 4565): <0.5 mg/L
  MIC Streptococcus pyogenes (ID-3187): <0.5 mg/L
[1]
  median effective dose (ED50), Enterococcus faecalis (GC 2246): 4.3 mg/kg
[2]
  median effective dose (ED50), Staphylococcus aureus-SMITH (GC 4543): 0.52 mg/kg

## CC(c1ccccc1)C1NC(=O)CNC(=O)C(CO)NC(=O)C(C(O)C2CNC(=N)N2C2OC(CO)C(O)C(O)C2O)NC(=O)C(C(O)C2CNC(=N)N2)NC(=O)C(Cc2ccc(OC3OC(CO)C(OC4OC(COC(=O)C(c5ccccc5)c5ccccc5)C(O)C(O)C4O)C(O)C3O)cc2)NC1=O (stereo not drawn) [Example 96c, Cyclo[glycyl-β-methylphenylalanyl-O-[4-O-[6-O-(diphenylacetyl)hexopyranosyl)hexopyranosyl]tyrosyl-3-(2-iminoimidazolidin-4-yl)seryl-3-(3-hexopyranosyl-2-iminoimidazolidin-4-yl)serylseryl]]
Enterococcus sp.; Enterococcus faecalis (GC 2242), broth dilution, 18 hours at 35° C.
  MIC Enterococcus faecalis (GC 2242): 1 mg/L (≈ 0.671 µM)
Enterococcus sp.; strain ATCC 29212
  MIC Enterococcus faecalis (ATCC 29212): 2 mg/L (≈ 1.34 µM)
Enterococcus sp.; strain GC 2242
  MIC Enterococcus faecalis (GC 2242): 1 mg/L (≈ 0.671 µM)
Enterococcus sp.; strain GC 2243
  MIC Enterococcus faecium (GC 2243): 2 mg/L (≈ 1.34 µM)
Enterococcus sp.; strain GC 4552
  MIC Enterococcus faecalis (GC 4552): 2 mg/L (≈ 1.34 µM)
Enterococcus sp.; strain GC 4553
  MIC Enterococcus faecalis (GC 4553): 2 mg/L (≈ 1.34 µM)
Enterococcus sp.; strain GC 4554
  MIC Enterococcus faecalis (GC 4554): 2 mg/L (≈ 1.34 µM)
Enterococcus sp.; strain GC 4556
  MIC Enterococcus faecium (GC 4556): 2 mg/L (≈ 1.34 µM)
Enterococcus sp.; strain GC 4557
  MIC Enterococcus faecium (GC 4557): 1 mg/L (≈ 0.671 µM)
Enterococcus sp.; strain GC 4558
  MIC Enterococcus avium (GC 4558): 2 mg/L (≈ 1.34 µM)
Escherichia coli; strain ATCC 25922
  MIC Escherichia coli (ATCC 25922): 64 mg/L (≈ 43 µM)
Staphylococcus sp.; [5]
  MIC Staphylococcus aureus (ATCC 29213): 1 mg/L (≈ 0.671 µM)
  MIC Staphylococcus aureus (GC 1131): 0.5 mg/L (≈ 0.336 µM)
  MIC Staphylococcus aureus (GC 4541): 0.5 mg/L (≈ 0.336 µM)
  MIC Staphylococcus aureus (GC 4542): 1 mg/L (≈ 0.671 µM)
  MIC Staphylococcus aureus (GC 4544): 1 mg/L (≈ 0.671 µM)
  MIC Staphylococcus aureus (GC 4545): 0.5 mg/L (≈ 0.336 µM)
Staphylococcus sp.; [4]
  MIC Staphylococcus aureus-SMITH (GC 4543): 0.5 mg/L (≈ 0.336 µM)
Staphylococcus sp.
  MIC Staphylococcus haemolyticus (GC 4546): 0.5 mg/L (≈ 0.336 µM)
  MIC Coagulase Negative Staphylococcus (GC 4547): 1 mg/L (≈ 0.671 µM)
  MIC Coagulase Negative Staphylococcus (GC 4548): 0.25 mg/L (≈ 0.168 µM)
  MIC Coagulase Negative Staphylococcus (GC 4549): 1 mg/L (≈ 0.671 µM)
  MIC Coagulase Negative Staphylococcus (GC 4551): 1 mg/L (≈ 0.671 µM)
  MIC Coagulase Negative Staphylococcus (ID-3941): 0.5 mg/L (≈ 0.336 µM)
Staphylococcus sp.; strain SMITH GC 4543, broth dilution, 18 hours at 35° C.
  MIC Staphylococcus aureus-SMITH (GC 4543): 0.5 mg/L (≈ 0.336 µM)
Streptococcus sp.; Streptococcus agalactiae (GC 4564), broth dilution, 18 hours at 35° C.
  MIC Streptococcus agalactiae (GC 4564): <0.06 mg/L
Streptococcus sp.; Streptococcus pneumoniae (GC 4565), broth dilution, 18 hours at 35° C.
  MIC Streptococcus pneumoniae (GC 4565): <0.06 mg/L
Streptococcus sp.; Streptococcus pyogenes (ID-3187), broth dilution, 18 hours at 35° C.
  MIC Streptococcus pyogenes (ID-3187): <0.06 mg/L
Streptococcus sp.; strain GC 4564
  MIC Streptococcus agalactiae (GC 4564): <0.06 mg/L
Streptococcus sp.; strain GC 4565
  MIC Streptococcus pneumoniae (GC 4565): <0.06 mg/L
Streptococcus sp.; strain ID-3187
  MIC Streptococcus pyogenes (ID-3187): <0.06 mg/L
[1]
  median effective dose (ED50), Enterococcus faecalis (GC 2246): 5.2 mg/kg
[2]
  median effective dose (ED50), Staphylococcus aureus-SMITH (GC 4543): 0.29 mg/kg

— patent US8247211B2, “Glycopeptide antibiotics” (American Cyanamid Company, priority 2001, dated 2012)
